# Laboratory results taken from patent US12227482B2, “Compounds and compositions for the treatment of cancer” (The Regents of the University of California, priority 2016, dated 2025).
# Legend:
# Type in all cases: cell-based
# [1] = system: A549 cells; assay: Cell viability (CellTiter-Glo ATP content) in A549 cells; settings: Homo sapiens, A549, 72 h, 72 hours treatment, cell survival by CellTiter-Glo, 2% fetal bovine serum
# Protocol: (§1) Logarithmically growing A549, LOX and MelJuSo cells (ATCC) were plated in antibiotic-free RPMI medium (Coming) supplemented with 2% fetal bovine serum (Gemini Bio-products) at a density of 5,000 cells per well in clear-bottom 96-well plates. The next day cells were treated (triplicates) with increasing doses of a compound of the present disclosure (dissolved in DMSO) and DMSO vehicle controls (final DMSO concentration of 0.5%) for 72 hours and subsequently assessed for cell viability by measuring ATP content with CellTiter-Glo Luminescent Cell Viability Assay (Promega). Signal intensity was measured on a Glomax™ 96 Microplate Luminometer (Promega) and percent cell survival was calculated based on the reading of vehicle control cells set as 100%.
# [2] = system: LOX cells; assay: Cell viability (CellTiter-Glo ATP content) in LOX cells; settings: LOX, 72 h, 72 hours treatment, cell survival by CellTiter-Glo, 2% fetal bovine serum
# Protocol: as §1
# [3] = system: MelJuSo cells; assay: Cell viability (CellTiter-Glo ATP content) in MelJuSo cells; settings: Homo sapiens, MEL-JUSO, 72 hours treatment, cell survival by CellTiter-Glo, 2% fetal bovine serum
# Protocol: as §1
SMILES,IC50 [1] [µM],IC50 [2] [µM],IC50 [3] [µM]
"CCCCC1C(c2ccc(F)cc2)=NN(c2ccccc2)C1(C)C(=O)NCCCC(C)(C)CO (centres unmarked) [Compound 1, 4-butyl-3-(4-fluorophenyl)-N-(5-hydroxy-4,4-dimethylpentyl)-5-methyl-1-phenyl-4,5-dihydro-1H-pyrazole-5-carboxamide]",0.5 to 1,0.5 to 1,0.25 to 0.5
"CCCCC1C(c2ccc(F)cc2)=NN(c2ccccc2)C1(C)C(=O)NCCCCC(C)(C)O (centres unmarked) [Compound 2, 4-butyl-3-(4-fluorophenyl)-N-(5-hydroxy-5-methylhexyl)-5-methyl-1-phenyl-4,5-dihydro-1H-pyrazole-5-carboxamide]",1 to 2,1 to 2,0.5 to 1
"CCCCC1C(c2ccc(F)cc2)=NN(c2ccc(F)cc2F)C1(C)C(=O)NCCCC(C)(C)CO (centres unmarked) [Compound 3, 4-butyl-1-(2,4-difluorophenyl)-3-(4-fluorophenyl)-N-(5-hydroxy-4,4-dimethylpentyl)-5-methyl-4,5-dihydro-1H-pyrazole-5-carboxamide]",0.5 to 1,0.5 to 1,0.5 to 1
"CCCCC1C(c2ccc(F)cc2)=NN(c2ccc(F)cc2F)C1(C)C(=O)NCCCCC(C)(C)O (centres unmarked) [Compound 4, 4-butyl-1-(2,4-difluorophenyl)-3-(4-fluorophenyl)-N-(5-hydroxy-5-methylhexyl)-5-methyl-4,5-dihydro-1H-pyrazole-5-carboxamide]",0.5 to 1,0.5 to 1,0.5 to 1
"CCCCC1C(c2ccc(F)cc2)=NN(c2ccc(F)cc2F)C1(C)C(=O)NCCCOC (centres unmarked) [Compound 5, 4-butyl-1-(2,4-difluorophenyl)-3-(4-fluorophenyl)-N-(3-methoxypropyl)-5-methyl-4,5-dihydro-1H-pyrazole-5-carboxamide]",1 to 2,1 to 2,0.5 to 1
"CCCCC1C(c2ccc(F)cc2)=NN(c2ccc(F)cc2F)C1(C)C(=O)NCCOC (centres unmarked) [Compound 6, 4-butyl-1-(2,4-difluorophenyl)-3-(4-fluorophenyl)-N-(2-methoxyethyl)-5-methyl-4,5-dihydro-1H-pyrazole-5-carboxamide]",0.5 to 1,0.5 to 1,0.5 to 1
"CCCCC1C(c2ccc(F)cc2)=NN(c2cccc(F)c2)C1(C)C(=O)NCCCCC(C)(C)O (centres unmarked) [Compound 7, 4-butyl-1-(3-fluorophenyl)-3-(4-fluorophenyl)-N-(5-hydroxy-5-methylhexyl)-5-methyl-4,5-dihydro-1H-pyrazole-5-carboxamide]",> 2,1 to 2,0.5 to 1
"CCCCC1C(c2ccc(F)cc2)=NN(c2cccc(F)c2)C1(C)C(=O)NCCCOC (centres unmarked) [Compound 8, 4-butyl-1-(3-fluorophenyl)-3-(4-fluorophenyl)-N-(3-methoxypropyl)-5-methyl-4,5-dihydro-1H-pyrazole-5-carboxamide]",> 2,> 2,1 to 2
"CCCCC1C(c2ccc(F)cc2)=NN(c2cc(F)ccc2F)C1(C)C(=O)NCCCCC(C)(C)O (centres unmarked) [Compound 9, 4-butyl-1-(2,5-difluorophenyl)-3-(4-fluorophenyl)-N-(5-hydroxy-5-methylhexyl)-5-methyl-4,5-dihydro-1H-pyrazole-5-carboxamide]",1 to 2,0.5 to 1,0.5 to 1
"CCCCC1C(c2ccc(F)c(F)c2)=NN(c2ccccc2)C1(C)C(=O)NCCCCC(C)(C)O (centres unmarked) [Compound 10, 4-butyl-3-(3,4-difluorophenyl)-N-(5-hydroxy-5-methylhexyl)-5-methyl-1-phenyl-4,5-dihydro-1H-pyrazole-5-carboxamide]",> 2,1 to 2,0.5 to 1
"CCCCC1C(c2ccc(F)cc2)=NN(c2ccc(F)c(Cl)c2)C1(C)C(=O)NCCCCC(C)(C)O (centres unmarked) [Compound 11, 4-butyl-1-(3-chloro-4-fluorophenyl)-3-(4-fluorophenyl)-N-(5-hydroxy-5-methylhexyl)-5-methyl-4,5-dihydro-1H-pyrazole-5-carboxamide]",> 2,> 2,1 to 2
"CCCCC1C(c2ccc(F)cc2)=NN(c2ccc(Cl)cc2)C1(C)C(=O)NCCCC(C)(C)CO (centres unmarked) [Compound 12, 4-butyl-1-(4-chlorophenyl)-3-(4-fluorophenyl)-N-(5-hydroxy-4,4-dimethylpentyl)-5-methyl-4,5-dihydro-1H-pyrazole-5-carboxamide]",> 2,1 to 2,1 to 2
"CCCCC1C(c2ccc(F)cc2)=NN(c2ccc(Cl)cc2)C1(C)C(=O)NCCCOC (centres unmarked) [Compound 13, 4-butyl-1-(4-chlorophenyl)-3-(4-fluorophenyl)-N-(3-methoxypropyl)-5-methyl-4,5-dihydro-1H-pyrazole-5-carboxamide]",> 2,> 2,> 2
"CCCCC1C(c2ccc(F)cc2)=NN(c2ccc(F)cc2)C1(C)C(=O)NCCCOC (centres unmarked) [Compound 14, 4-butyl-1,3-bis(4-fluorophenyl)-N-(3-methoxypropyl)-5-methyl-4,5-dihydro-1H-pyrazole-5-carboxamide]",> 2,1 to 2,1 to 2
"CCCCC1C(c2ccc(F)cc2)=NN(c2ccc(C)cc2)C1(C)C(=O)NCCCC(C)(C)CO (centres unmarked) [Compound 15, 4-butyl-3-(4-fluorophenyl)-N-(5-hydroxy-4,4-dimethylpentyl)-5-methyl-1-p-tolyl-4,5-dihydro-1H-pyrazole-5-carboxamide]",1 to 2,0.25 to 0.5,0.25 to 0.5
"CCCCC1C(c2ccc(F)cc2)=NN(c2ccc(C)cc2)C1(C)C(=O)NCCCOC (centres unmarked) [Compound 16, 4-butyl-3-(4-fluorophenyl)-N-(3-methoxypropyl)-5-methyl-1-p-tolyl-4,5-dihydro-1H-pyrazole-5-carboxamide]",> 2,> 2,0.5 to 1
"CCCCC1C(c2ccc(F)cc2)=NN(c2cccc(Cl)c2)C1(C)C(=O)NCCCC(C)(C)CO (centres unmarked) [Compound 17, 4-butyl-1-(3-chlorophenyl)-3-(4-fluorophenyl)-N-(5-hydroxy-4,4-dimethylpentyl)-5-methyl-4,5-dihydro-1H-pyrazole-5-carboxamide]",1 to 2,1 to 2,0.25 to 0.5
"CCCCC1C(c2ccc(F)cc2)=NN(c2ccc(F)c(OC)c2)C1(C)C(=O)NCCCC(C)(C)CO (centres unmarked) [Compound 18, 4-butyl-1-(4-fluoro-3-methoxyphenyl)-3-(4-fluorophenyl)-N-(5-hydroxy-4,4-dimethylpentyl)-5-methyl-4,5-dihydro-1H-pyrazole-5-carboxamide]",> 2,> 2,> 2
"CCCCC1C(c2ccc(F)cc2)=NN(c2ccc(F)c(OC)c2)C1(C)C(=O)NCCCOC (centres unmarked) [Compound 19, 4-butyl-1-(4-fluoro-3-methoxyphenyl)-3-(4-fluorophenyl)-N-(3-methoxypropyl)-5-methyl-4,5-dihydro-1H-pyrazole-5-carboxamide]",> 2,> 2,> 2
"CC(C)(CO)CCCNC(=O)C1(C)C(c2cccs2)C(c2ccc(F)cc2)=NN1c1ccccc1 (centres unmarked) [Compound 20, 3-(4-fluorophenyl)-N-(5-hydroxy-4,4-dimethylpentyl)-5-methyl-1-phenyl-4-(thiophen-2-yl)-4,5-dihydro-1H-pyrazole-5-carboxamide]",0.5 to 1,0.5 to 1,0.25 to 0.5
"CC(C)(CO)CCCNC(=O)C1(C)C(c2ccncc2)C(c2ccc(F)cc2)=NN1c1ccccc1 (centres unmarked) [Compound 21, 3-(4-fluorophenyl)-N-(5-hydroxy-4,4-dimethylpentyl)-5-methyl-1-phenyl-4-(pyridin-4-yl)-4,5-dihydro-1H-pyrazole-5-carboxamide]",> 2,> 2,> 2
"CCCCC1C(c2ccc(F)cc2)=NN(c2ccc(F)cc2Cl)C1(C)C(=O)NCCCC(C)(C)CO (centres unmarked) [Compound 22, 4-butyl-1-(2-chloro-4-fluorophenyl)-3-(4-fluorophenyl)-N-(5-hydroxy-4,4-dimethylpentyl)-5-methyl-4,5-dihydro-1H-pyrazole-5-carboxamide]",> 2,> 2,> 2
"Cn1cccc1C1C(c2ccc(F)cc2)=NN(c2ccc(F)cc2F)C1(C)C(=O)NCCCC(C)(C)CO (centres unmarked) [Compound 93, 1-(2,4-difluorophenyl)-3-(4-fluorophenyl)-N-(5-hydroxy-4,4-dimethylpentyl)-5-methyl-4-(1-methyl-1H-pyrrol-2-yl)-4,5-dihydro-1H-pyrazole-5-carboxamide]",> 2,,> 2
"COCCNC(=O)C1(C)C(c2cccn2C)C(c2ccc(F)cc2)=NN1c1ccc(F)cc1F (centres unmarked) [Compound 94, 1-(2,4-difluorophenyl)-3-(4-fluorophenyl)-N-(2-methoxyethyl)-5-methyl-4-(1-methyl-1H-pyrrol-2-yl)-4,5-dihydro-1H-pyrazole-5-carboxamide]",> 2,,> 2
"Cn1cc(C2C(c3ccc(F)cc3)=NN(c3ccc(F)cc3F)C2(C)C(=O)NCCCC(C)(C)CO)cn1 (centres unmarked) [Compound 95, 1-(2,4-difluorophenyl)-3-(4-fluorophenyl)-N-(5-hydroxy-4,4-dimethylpentyl)-5-methyl-4-(1-methyl-1H-pyrazol-4-yl)-4,5-dihydro-1H-pyrazole-5-carboxamide]",> 2,,> 2
"COCCNC(=O)C1(C)C(c2cnn(C)c2)C(c2ccc(F)cc2)=NN1c1ccc(F)cc1F (centres unmarked) [Compound 96, 1-(2,4-difluorophenyl)-3-(4-fluorophenyl)-N-(2-methoxyethyl)-5-methyl-4-(1-methyl-1H-pyrazol-4-yl)-4,5-dihydro-1H-pyrazole-5-carboxamide]",> 2,,> 2
